The results in this text go back to patent EP4603105A1, “PHARMACEUTICAL COMPOSITION CONTAINING CYCLIC COMPOUND HAVING SELECTIVE KRAS INHIBITORY EFFECT AGAINST HRAS AND NRAS” (CHUGAI SEIYAKU KABUSHIKI KAISHA, priority 2022, dated 2024).

In general, pIC50 refers to the IC50 on a negative log10 scale, so that one unit is a factor of ten. A higher pIC50 goes with a low IC50.

For test [1], the target named is GDP-bound NRAS wild-type protein (Homo sapiens, UniProt P01111). Briefly: Binding to NRAS by surface plasmon resonance (SPR), KD and KD ratio to KRAS. The following applies: ratio of KD for GDP-bound NRAS wild-type protein to KD for KRAS. In short, it runs like this: (§1)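 Affinity is measured by surface plasmon resonance at 30°C against captured, GDP-loaded RAS carrying a biotinylated Avi tag. Compounds are titrated by single-cycle kinetics, and KD comes from a 1:1 fit.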
Sequence of GDP-bound NRAS wild-type protein (P01111 whole entry): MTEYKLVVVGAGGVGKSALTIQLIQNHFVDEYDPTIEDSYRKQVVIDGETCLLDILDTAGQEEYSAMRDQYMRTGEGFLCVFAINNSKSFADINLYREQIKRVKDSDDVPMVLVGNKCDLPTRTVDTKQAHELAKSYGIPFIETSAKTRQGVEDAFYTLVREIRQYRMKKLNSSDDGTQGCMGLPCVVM
In general terms: Surface plasmon resonance follows binding to a sensor surface in real time, without labels.

Another test concerns the target HRAS wild-type protein (Homo sapiens, UniProt P01112). Briefly: Binding to HRAS by surface plasmon resonance (SPR), KD and KD ratio to KRAS. Particulars: ratio of KD for HRAS wild-type protein to KD for KRAS. In short, it runs like this:
as §1

In test [2] the test system is human lung cancer strain NCI-H441. Type of test: cell-based. A digest of the protocol: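 Readout: […] after the ATP-based reagent. Compound: serial dilutions in dimethyl sulfoxide.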

pIC50: −log10 of the molar value.

Sequence of HRAS wild-type protein (P01112 whole entry): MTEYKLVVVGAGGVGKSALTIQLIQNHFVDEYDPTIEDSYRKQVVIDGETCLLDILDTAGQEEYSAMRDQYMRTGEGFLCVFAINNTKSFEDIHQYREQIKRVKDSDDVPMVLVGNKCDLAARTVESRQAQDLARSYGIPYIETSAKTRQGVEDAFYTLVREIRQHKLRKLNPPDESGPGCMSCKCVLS

With `CCC[C@H]1C(=O)N[C@@H]([C@@H](C)CC)C(=O)N(C)CC(=O)N(C)[C@H]2C/C=C\CCN(C2=O)[C@@H](Cc2ccc(C(F)(F)F)cc2)C(=O)N(C)CC(=O)N[C@@H](CCc2ccc(Cl)c(OC)c2)C(=O)N2C[C@H](OCC)C[C@H]2C(=O)NC2(CC(C)(C)C2)C(=O)N(C)[C@@H](C2CCCC2)C(=O)N(C)[C@H](C(=O)N(C)C)CC(=O)N1C` [PP2788], in test [1], the “NRAS /KRAS” value was “A (a compound having 10 or more and less than 20 is denoted as A)”. Further, the “HRAS /KRAS” value on HRAS wild-type protein was “A (a compound having 10 or more and less than 20 is denoted as A)”. This molecule showed a negative-log IC50 (pIC50) in test [2] of 7.61.
Turning to `CCC[C@H]1C(=O)N[C@@H]([C@@H](C)CC)C(=O)N(C)CC(=O)N(C)[C@H]2C/C=C\CCN(C2=O)[C@@H](Cc2ccc(C(F)(F)F)cc2)C(=O)N(C)CC(=O)N[C@@H](CCc2ccc(Cl)c(OC)c2)C(=O)N2C[C@H](OCC)C[C@H]2C(=O)NC2(CC(C)(C)C2)C(=O)N(C)[C@@H](C(CC)CC)C(=O)N(C)[C@H](C(=O)N(C)C)CC(=O)N1C` [PP2789], the “NRAS /KRAS” value in test [1] is on record as “AA (a compound having 20 or more is denoted as AA)”. In addition, the “HRAS /KRAS” value at HRAS wild-type protein is “A (a compound having 10 or more and less than 20 is denoted as A)”. The molecule further showed a pIC50 in test [2] of 7.33.
Regarding `CCC[C@H]1C(=O)N[C@@H]([C@@H](C)CC)C(=O)N(C)CC(=O)N(C)[C@H]2C/C=C\CCN(C2=O)[C@@H](Cc2ccc(C)cc2)C(=O)N(C)CC(=O)N[C@@H](CCc2ccc(Cl)c(OC)c2)C(=O)N2C[C@H](OCC)C[C@H]2C(=O)NC2(CC(C)(C)C2)C(=O)N(C)[C@@H](C2CCCC2)C(=O)N(C)[C@H](C(=O)N(C)C)CC(=O)N1C` [PP2790], in test [1], the “NRAS /KRAS” value was “A (a compound having 10 or more and less than 20 is denoted as A)”. Moreover, at HRAS wild-type protein, the “HRAS /KRAS” value is “A (a compound having 10 or more and less than 20 is denoted as A)”. Also, in test [2], the pIC50 was 7.23.
For `CCCC[C@H]1C(=O)N[C@@H]([C@@H](C)CC)C(=O)N(C)CC(=O)N(C)[C@H]2C/C=C\CCN(C2=O)[C@@H](Cc2ccc(C)cc2)C(=O)N(C)CC(=O)N[C@@H](CCc2cc(F)c(C(F)(F)F)c(F)c2)C(=O)N2C[C@H](OCC)C[C@H]2C(=O)NC2(CCC2)C(=O)N(C)[C@@H](C2CCCC2)C(=O)N(C)[C@H](C(=O)N(C)CC)CC(=O)N1C` [PP2796], the “NRAS /KRAS” value in test [1] was “A (a compound having 10 or more and less than 20 is denoted as A)”. Besides, on HRAS wild-type protein, the “HRAS /KRAS” value was “A (a compound having 10 or more and less than 20 is denoted as A)”. The molecule also had a pIC50 in test [2] of 8.02.
Consider `CCCC[C@H]1C(=O)N[C@@H]([C@@H](C)CC)C(=O)N(C)CC(=O)N(C)[C@H]2C/C=C\CCN(C2=O)[C@@H](Cc2ccc(C)cc2)C(=O)N(C)CC(=O)N[C@@H](CCc2cc(F)c(C(F)(F)F)c(F)c2)C(=O)N2C[C@H](OCC)C[C@H]2C(=O)NC2(CCC2)C(=O)N(C)[C@@H](C2CCCC2)C(=O)N(C)[C@H](C(=O)N(C)C)CC(=O)N1C` [PP2798], for which the “NRAS /KRAS” value in test [1] is “A (a compound having 10 or more and less than 20 is denoted as A)”. For the same molecule, the “HRAS /KRAS” value at HRAS wild-type protein is “A (a compound having 10 or more and less than 20 is denoted as A)”. This molecule also gave a pIC50 in test [2] of 8.07.
With `CCC[C@H]1C(=O)N[C@@H]([C@@H](C)CC)C(=O)N(C2CC2)CC(=O)N(C)[C@H]2C/C=C\CCN(C2=O)[C@@H](Cc2ccc(C)cc2)C(=O)N(C)CC(=O)N[C@@H](CCc2ccc(C(F)(F)F)c(OC)c2)C(=O)N2C[C@H](OCC)C[C@H]2C(=O)NC2(CC(C)(C)C2)C(=O)N(C)[C@@H](CC2CC2)C(=O)N(C)[C@H](C(=O)N(C)C)CC(=O)N1C` [PP2803], in test [1], the “NRAS /KRAS” value was “A (a compound having 10 or more and less than 20 is denoted as A)”. Moreover, the “HRAS /KRAS” value on HRAS wild-type protein is “A (a compound having 10 or more and less than 20 is denoted as A)”. The pIC50 in test [2] was 6.92.
Regarding `CC[C@H](C)[C@@H]1NC(=O)[C@H](CC2CC2)N(C)C(=O)C[C@@H](C(=O)N(C)C)N(C)C(=O)[C@H](C2CCCC2)N(C)C(=O)C2(CC(C)(C)C2)NC(=O)[C@@H]2C[C@@H](F)CN2C(=O)[C@H](CCc2cc(F)c(C(F)(F)F)c(F)c2)NC(=O)CN(C)C(=O)[C@H](Cc2ccc(C)cc2)N2CC/C=C\C[C@@H](C2=O)N(C)C(=O)CN(C)C1=O` [PP2804], the “NRAS /KRAS” value in test [1] is “A (a compound having 10 or more and less than 20 is denoted as A)”. Moreover, the “HRAS /KRAS” value at HRAS wild-type protein is “A (a compound having 10 or more and less than 20 is denoted as A)”. The molecule further showed a pIC50 in test [2] of 8.66.
With `CCCC[C@H]1C(=O)N[C@@H]([C@@H](C)CC)C(=O)N(C)CC(=O)N(C)[C@H]2C/C=C\CCN(C2=O)[C@@H](Cc2ccc(C(F)(F)F)cc2)C(=O)N(C)CC(=O)N[C@@H](CCc2cc(F)c(C(F)(F)F)c(F)c2)C(=O)N2C[C@H](OCC)C[C@H]2C(=O)NC2(CC(C)(C)C2)C(=O)N(C)[C@@H](C2CCCC2)C(=O)N(C)[C@H](C(=O)N(C)CC)CC(=O)N1C` [PP2806], the “NRAS /KRAS” value in test [1] is “A (a compound having 10 or more and less than 20 is denoted as A)”. The “HRAS /KRAS” value at HRAS wild-type protein is “A (a compound having 10 or more and less than 20 is denoted as A)”. In addition, the pIC50 in test [2] was 7.95.
As for `CCC[C@H]1C(=O)N[C@@H]([C@@H](C)CC)C(=O)N(C)CC(=O)N(C)[C@H]2C/C=C\CCN(C2=O)[C@@H](Cc2ccc(C(F)(F)F)cc2)C(=O)N(C)CC(=O)N[C@@H](CCc2cc(F)c(C(F)(F)F)c(F)c2)C(=O)N2C[C@H](OCC)C[C@H]2C(=O)NC2(CC(C)(C)C2)C(=O)N(C)[C@@H](CC2CC2)C(=O)N(C)[C@H](C(=O)N(C)C)CC(=O)N1C` [PP2807], the “NRAS /KRAS” value in test [1] is reported as “AA (a compound having 20 or more is denoted as AA)”. In addition, the “HRAS /KRAS” value on HRAS wild-type protein is “A (a compound having 10 or more and less than 20 is denoted as A)”. In test [2], this molecule had a pIC50 of 7.55.
Take `CCCC[C@H]1C(=O)N[C@@H]([C@@H](C)CC)C(=O)N(C)CC(=O)N(C)[C@H]2C/C=C\CCN(C2=O)[C@@H](Cc2ccc(C)cc2)C(=O)N(C)CC(=O)N[C@@H](CCc2cc(F)c(C(F)(F)F)c(F)c2)C(=O)N2C[C@H](OCC)C[C@H]2C(=O)NC2(CC(C)(C)C2)C(=O)N(C)[C@@H](C2CCCC2)C(=O)N(C)[C@H](C(=O)N(C)CC)CC(=O)N1C` [PP2808]: the “NRAS /KRAS” value in test [1] is “B (a compound having 3 or more and less than 10 is denoted as B)”. The “HRAS /KRAS” value at HRAS wild-type protein is “B (a compound having 3 or more and less than 10 is denoted as B)”. This molecule also gave a pIC50 in test [2] of 7.88.
With `CCC[C@H]1C(=O)N[C@@H]([C@@H](C)CC)C(=O)N(C)CC(=O)N(C)[C@H]2C/C=C\CCN(C2=O)[C@@H](Cc2ccc(C(F)(F)F)cc2)C(=O)N(C)CC(=O)N[C@@H](CCc2ccc(C(F)(F)F)c(OC)c2)C(=O)N2C[C@H](OCC)C[C@H]2C(=O)NC2(CC(C)(C)C2)C(=O)N(C)[C@@H](CC2CC2)C(=O)N(C)[C@H](C(=O)N(C)C)CC(=O)N1C` [PP2809], the “NRAS /KRAS” value in test [1] is “A (a compound having 10 or more and less than 20 is denoted as A)”. The “HRAS /KRAS” value at HRAS wild-type protein is “A (a compound having 10 or more and less than 20 is denoted as A)”. Besides, in test [2], the pIC50 was 7.12.
With `CCC[C@H]1C(=O)N[C@@H]([C@@H](C)CC)C(=O)N(C)CC(=O)N(C)[C@H]2C/C=C\CCN(C2=O)[C@@H](Cc2ccc(C(F)(F)F)cc2)C(=O)N(C)CC(=O)N[C@@H](CCc2ccc(Cl)c(Cl)c2)C(=O)N2C[C@H](OCC)C[C@H]2C(=O)NC2(CC(C)(C)C2)C(=O)N(C)[C@@H](CC2CC2)C(=O)N(C)[C@H](C(=O)N(C)C)CC(=O)N1C` [PP2811], in test [1], the “NRAS /KRAS” value is “A (a compound having 10 or more and less than 20 is denoted as A)”. Besides, at HRAS wild-type protein, the “HRAS /KRAS” value was “A (a compound having 10 or more and less than 20 is denoted as A)”. In addition, in test [2], the pIC50 was 7.00.
